One experiment concerns K562. As to the kind of experiment: Cytotoxicity against human K562 cells by XTT reagent based automated microculture tetrazolium assay. The experiment is classed as functional, cell-based.
For a further experiment, the system named is DLD-1. Kind of experiment: Cytotoxicity against human DLD1 cells by XTT reagent based automated microculture tetrazolium assay. The experiment is classed as functional, cell-based.
The next experiment deals with HepG2. Kind of experiment: Cytotoxicity against human HepG2 cells by XTT reagent based automated microculture tetrazolium assay. The experiment is classed as functional, cell-based.
The nature of experiment [1]: Cytotoxicity against human Hep3B cells by XTT reagent based automated microculture tetrazolium assay. In kind it is functional, cell-based, Hep 3B2. In general terms: Tetrazolium dyes change colour on reduction, which living cells bring about.

In general, IC50 refers to the concentration that inhibits the measured activity by half. The low end stands for greater potency, the high end for weaker potency.

For the compound `C/C(=C\[C@@H](O)C/C(C)=C/CCCC(=O)CO)CC[C@@H](O)[C@]1(C)CCC(=O)O1` [IRCINOLIN A], the IC50 (with K562; in the experiment with DLD-1; in the experiment with HepG2; in experiment [1]) was above 20 µM in each case.

Consider `CC(=O)O[C@H](/C=C(\C)CC[C@@H](O)[C@]1(C)CCC(=O)O1)C/C(C)=C/CCc1ccoc1`, for which the IC50 was 9.6 µM in the experiment with K562, 0.2 µM in the experiment on DLD-1, 2.2 µM in the experiment on HepG2 and 10.6 µM in experiment [1].

For the compound `CC(=O)O[C@H](CC/C(C)=C/[C@@H](O)C/C(C)=C/CCc1ccoc1)[C@]1(C)CCC(=O)O1`, the half-maximal inhibitory concentration (IC50) with K562 came out at 5.4 µM; in the experiment with DLD-1, 0.03 µM; with HepG2, 0.5 µM; in experiment [1] it was 1.1 µM.

For the compound `CC(=O)O[C@H](/C=C(\C)CC[C@@H](OC(C)=O)[C@]1(C)CCC(=O)O1)C/C(C)=C/CCc1ccoc1` [IRCIFORMONIN F], the IC50 with K562 is 10.2 µM; with DLD-1, 0.6 µM; in the experiment on HepG2 it was 1.7 µM; in experiment [1], 7 µM.

For the compound `C/C(=C\[C@@H](O)C/C(C)=C/CCc1ccoc1)CC[C@@H](O)[C@]1(C)CCC(=O)O1` [IRCIFORMONIN B], the IC50 in the experiment on K562 worked out at 7.8 µM; with DLD-1 it was 0.04 µM; in the experiment on HepG2, 1 µM; in experiment [1] it was 6.4 µM.

For the origin of these results see ChEMBL document CHEMBL1821691, “Cytotoxic C21 and C22 terpenoid-derived metabolites from the sponge Ircinia sp” (J Nat Prod, 2011).
